Data: publication PMC5374622, “Morintides: cargo-free chitin-binding peptides from Moringa oleifera” (BMC Plant Biology, 2017)
Positions of bridges follow the written chain, without caps; N, C: chain ends. Non-standard residues stand in square brackets, D forms with d. No end group written: not given here. pGlu = O=C1CC[C@@H](C(=O)O)N1

Key:
[1] = type: physicochemical
Description: Purified mO1 (40 μg) was dissolved in water and incubated at 100 °C for 1 h. A linear peptide RV-14 ([…]) synthesized in our laboratory was used as a control. After incubation, the samples were subjected to RP-UPLC to assess the presence and extent of degradation.

Vero cells = experiment: Cytotoxicity assay (PrestoBlue cell viability); type: cell-based; settings: concentrations up to 100 μM (1–100 μM), 24 h, DMEM 10% FBS, absorbance 570 nm
Description: The cytotoxic effect of morintide, mO1 (1–100 μM) was tested on Vero cells (5 × 10^4 cells/ml) in Dulbecco’s modified Eagle’s medium (DMEM) supplemented with 10% fetal bovine serum (FBS) and 1% penicillin/streptomycin (PS). Vero cells (ATCC CCL-81) were a kind gift from Dr Liu Ding Xiang (School of Biological Sciences, Nanyang Technological University, Singapore). After 24 h of incubation, 10 μl of PrestoBlue® Cell Viability Reagent (Invitrogen, USA) was added to the wells and incubated at 37 °C for 1 h. After incubation, the absorbance was measured at 570 nm using a microplate reader.

[2] = Proteolytic enzyme stability assay, carboxypeptidase A; type: in vitro ADME; settings: isolated enzyme carboxypeptidase, 50 mM Tris-HCl with 100 mM NaCl pH 7.5, 37 °C, peptide:enzyme 50:1 (w/w), RP-UPLC area under the curve, MALDI-TOF MS, read-out: peptide remained intact after carboxypeptidase A treatment
Description: (§1) Purified mO1 was incubated at 37 °C with pepsin or carboxypeptidase A in 100 mM sodium citrate (pH 4.5) or 50 mM Tris–HCl with 100 mM NaCl (pH 7.5) at a final peptide to enzyme ratio (w/w) of 20:1 and 50:1, respectively. At each time point (0, 2, 4, 6 h) 50 μL of the sample was injected into the UPLC system, and the mass of peaks collected were analyzed by MALDI-TOF MS. A linear peptide WV-14 (WRLYRGRLYRRNHV) synthesized in-house was used as a control.

[3] = test system: Alternaria brassiciola (CICC 2646); experiment: Disc diffusion assay; type: cell-based; settings: 17.5 to 70 μg mO1 on 6 mm discs, PDA plates, 24 h at 25 °C
Description: (§2) The susceptibility of seven fungal strains obtained from the China Center of Industrial Culture Collection (CICC), namely, Curvularia lunata (CICC 40301), Fusarium oxysporum (CICC 2532), Aspergillus niger (CICC 2089), Verticillium dahilae (CICC 2534), Rhizoctonia solani (CICC 40259), Alternaria alternata (CICC 2465) and Alternaria brassiciola (CICC 2646) to mO1 (17.5 to 70 μg) was tested using a disc diffusion assay. Potato dextrose agar (PDA) plates were used to grow C. lunata, R. solani, V. dahilae A. alternata, and A. brassiciola (A. niger was grown on malt extract (ME) agar plates) at 25 °C. When sufficient growth was observed, the mycelia were harvested by punching a hole in the growing fungi and transferring it to a new agar plate. The plate was incubated at 25 °C for 48 h to 72 h to allow formation of a radial mycelial colony. 6 mm discs impregnated with 20 μL of mO1 were placed equidistant (1 cm) from the growing ends of the mycelia and incubated for 24 h at 25 °C. Deionized water was used as a negative control. Formation of arc-shaped inhibition zones indicated susceptibility to mO1.

[4] = test system: Alternaria alternata (CICC 2465); experiment: Disc diffusion assay; type: cell-based; settings: 17.5 to 70 μg mO1 on 6 mm discs, PDA plates, 24 h at 25 °C
Description: as §2

[5] = Proteolytic enzyme stability assay, pepsin; type: in vitro ADME; settings: isolated enzyme pepsin, 100 mM sodium citrate pH 4.5, 37 °C, peptide:enzyme 20:1 (w/w), RP-UPLC area under the curve, MALDI-TOF MS, read-out: peptide remained intact after pepsin treatment
Description: as §1

[6] = Chitin binding assay with chitin beads
Description: Purified morintide (mO1) was incubated with chitin beads (New England Biolabs, Massachusetts, […]) in chitin binding buffer (140 mM NaCl, 10 mM Tris EDTA 1 mM; pH 8.0; then, 0.1% (v/v) Tween 20 was added) at 4 °C for 4 h. At each time point, the beads were centrifuged at 12,000 g for 1 min and the absorbance of the supernatant was read at 280 nm to assess binding. Elution of the bound peptide was performed using two methods. In the first method, 0.5 M acetic acid and heating at 100 °C for 30 min and 1 h was used, and in the second method, four elution buffers (10 mM Tris, 1 mM EDTA, 0.1% (v/v) Tween 20; pH 8.0) with increasing concentration of sodium chloride (300 mM, 500 mM, 700 mM, and 1 M) were used. Reduced and alkylated mO1 was used as a control. Supernatants were further analyzed by UPLC and MALDI-TOF to assess binding and elution.

| Substance | peptide remained intact after heating ([1]; 40 μg in water, 100 °C for 1 h, area under the curve of RP-UPLC chromatograms) | cytotoxic effect on Vero cells (Vero cells) | remaining at 6 h [2] | susceptibility (crescent-/arc-shaped inhibition zones) [3] | susceptibility (crescent-/arc-shaped inhibition zones) [4] | remaining at 6 h [5] | time for elution from chitin beads with 0.5 M acetic acid with heating at 100 °C ([6]; 0.5 M acetic acid, 100 °C, RP-UPLC) | elution from chitin beads with elution buffers with up to 1 M NaCl ([6]; elution buffers 10 mM Tris, 1 mM EDTA, 0.1% Tween 20, pH 8.0 with 300 mM, 500 mM, 700 mM, 1 M NaCl) | time for elution from chitin beads in acidic conditions at high temperature ([6]; legend of Figure S2, acidic conditions at high temperature) | peptide degraded on heating [1] |
| --- | --- | --- | --- | --- | --- | --- | --- | --- | --- | --- |
| [pGlu]NCGRQAGNRACANQLCCSQYGFCGSTSEYCSRANGCQSNCRG (disulfide 3-18, 12-24, 17-31, 37-41) [mO1] | more than 95% | No significant cytotoxic effect | > 95% | susceptible | susceptible | > 95% | 1 h | could not be eluted | 30 min |  |
| RLYRRGRLYRRNHV [RV-14, linear peptide synthesized in the authors' laboratory, control in the thermal stability assay, reference compound] |  |  |  |  |  |  |  |  |  | More than 50% |
